Details: Liquid, Vibrating tube method

CCCO [propan-1-ol]
mass density [kg/m3]
Details	293.15 K	303.15 K	313.15 K	323.15 K	333.15 K	343.15 K	353.15 K
100 kPa	803.5	795.2	787.6	779.3	770.5	761	752.2
5000 kPa	807.3	799.2	791.9	783.7	775.4	766	757.6
10000 kPa	810.9	802.9	795.9	788	780	770.7	762.7
15000 kPa	814.3	806.7	799.7	792	784.3	775.3	767.6
20000 kPa	817.7	810.1	803.3	795.8	788.4	779.6	772.1
25000 kPa	821	813.6	806.8	799.7	792	783.7	776.3
30000 kPa	824	816.7	810.2	803.2	795.7	787.6	780.4
35000 kPa	827	819.8	813.5	806.6	799.2	791.2	784.1
40000 kPa	829.9	822.9	816.6	809.9	802.6	794.7	787.7
45000 kPa	832.7	825.8	819.7	813	805.9	798.3	791.8
50000 kPa	835.4	828.8	822.7	816.1	809.1	801.6	795.1
55000 kPa	838.1	831.6	825.5	819	812.3	804.6	798.5
60000 kPa	840.7	834.2	828.3	821.8	815.2	807.7	801.7
65000 kPa	843.2	837	831	824.6	818.1	810.6	805

Cc1ccccc1 [toluene]
mass density [kg/m3]
Details	293.15 K	303.15 K	313.15 K	323.15 K	333.15 K	343.15 K	353.15 K
100 kPa	867.1	857.5	847.8	838.4	828.8	819.4	809.7
5000 kPa	870.6	861.4	852	842.7	833.5	824.5	815.1
10000 kPa	874.2	865.1	856.1	847	838.2	829.3	820.3
15000 kPa	877.6	869	859.9	851.1	842.6	833.9	825.3
20000 kPa	881.1	872.4	863.5	855	846.6	838.1	829.9
25000 kPa	884.2	875.8	867.1	858.9	850.5	842.3	834
30000 kPa	887.3	879	870.5	862.5	854.3	846.2	838.2
35000 kPa	890.3	882.1	873.8	866	857.9	850.1	842.2
40000 kPa	893.3	885.2	877	869.4	861.4	853.7	846.1
45000 kPa	896.1	888.2	880.2	872.5	864.8	857.4	849.8
50000 kPa	898.9	891.1	883.3	875.7	868.1	860.8	853.3
55000 kPa	901.6	894	886.2	878.7	871.4	864.2	856.7
60000 kPa	904.2	896.7	889	881.7	874.5	867.4	860.1
65000 kPa	906.7	899.2	891.8	884.6	877.5	870.3	863.5

From the NIST ThermoML archive (doi:10.1016/j.fluid.2006.05.032)
